row,Structure (SMILES),melting point [°C]
1,Nc1ccc(C(=O)NCc2ccccn2)c(Cl)c1,159 to 161
2,CNS(=O)(=O)c1ccc(Cl)s1,45 to 47
3,Cc1cc(S(=O)(=O)Cl)c(Cl)cc1F,44 to 46
4,CS(=O)(=O)Nc1cc(Br)ccc1F,143 to 145
5,O=C(O)c1cnc2ccc(Br)cn2c1=O,218 to 220
6,C=CCc1cc(OCC)ccc1O,135 to 137
7,O=c1[nH]nc(-c2ccccc2)cc1C(F)(F)F,184 to 186
8,O=C(O)c1c(Cl)cc(C(F)(F)F)cc1Cl,140 to 142
9,COc1cccc(NC2=NC(C)(C)CS2)c1,105 to 107
10,O=C(NCCc1ccccn1)OCC(F)(F)F,59 to 61
11,COC(=O)CNc1ncccc1[N+](=O)[O-],104 to 106
12,N#Cc1ccc(NC(=O)CCCCl)cc1,114 to 116
13,Cc1nnc(Cl)c(C#N)c1C,61 to 63
14,NC(=O)c1sccc1-c1ccccc1,114 to 116
15,CC(C)c1cc(C(=O)O)nn1-c1ccncc1,225 to 227
16,Nc1c(-c2ccc(F)cc2)nc2sccn12,137 to 139
17,O=S(=O)(Cl)c1ccc(OCC2CCCCO2)cc1 (stereo unspecified),64 to 66
18,O=C(O)Cc1ccn(-c2ccccc2)n1,99 to 101
19,CC1(C)CC(=O)c2cncnc2C1,67 to 69
20,COC(C)c1nc(CC(=O)O)cs1 (stereo unspecified),154 to 156
21,O=C(O)CNC(=O)c1ccc(C(=O)NCC(=O)O)cc1,261 to 263
22,O=Cc1sc(Cl)nc1Cl,38 to 42
23,Nc1ccccc1C(=O)N1CCCCC1,79 to 83
24,CC(Oc1ccc(C#N)cc1)C(=O)NN (stereo unspecified),129 to 131
25,O=c1[nH]c(-c2ccc(F)cc2)cs1,179 to 181
26,CCOC(=O)CNc1ccccc1-c1ccccc1,53 to 55

row,Structure (SMILES),melting point [°C]
1,O=C(O)c1ccc(-c2noc(C(F)(F)F)n2)cc1,249 to 251
2,Nc1ccc(CCN2CCCCC2)cc1,54 to 56
3,CCc1cc2c(Cl)ncnc2s1,55 to 57
4,O=C(O)C1CCCn2ccnc21 (stereo unspecified),156 to 158
5,CCc1ccc(-c2noc(S)n2)cc1,159 to 161
6,Cc1nc(Cl)nc(N(C)C)n1,81 to 83
7,CC(C)(C)OC(=O)Nc1ccc(F)cc1N,131 to 133
8,CC(C)N1C(=O)c2ccc(C(=O)O)cc2S1(=O)=O,238 to 240
9,NC(=S)c1cccnc1N1CCNC(=O)C1,189 to 191
10,COc1cc2c(cc1OC)C(c1ccccc1)NCC2 (stereo unspecified),111 to 113
11,COC(=O)c1cc(F)ccc1CBr,41 to 43
12,CSc1nc2nc(C)c(CC(=O)O)c(C)n2n1,275 to 277
13,ClCc1cc2c(cc1Br)OCCO2,117 to 119
14,CC(CC(=O)O)C1CCNCC1 (stereo unspecified),255 to 257
15,CC(C)NC(=O)OCC(F)(F)F,48 to 50
16,N#CC1(NC(=O)c2ccccc2)CCCC1,130 to 132
17,O=C(O)c1cccc(CN2CCCC2=O)c1,145 to 155
18,Nc1nc(-c2ccc(OC(F)F)cc2OC(F)F)cs1,86 to 88
19,O=C(CCl)Nc1ccc2c(c1)OCCCO2,108 to 110
20,N#Cc1ccc(OCCN)nc1,101 to 103
21,CCN(CC)S(=O)(=O)c1ccc(N)cc1,99 to 101
22,CN(C)Cc1ccnc(N)c1,58 to 60
23,N#Cc1ccc(NC(=O)CCCl)cc1Cl,156 to 158
24,Cc1ccc(Oc2ccc(N)cc2)nn1,114 to 116
25,Cc1ccc(S(=O)(=O)OC2CCS(=O)(=O)C2)cc1 (stereo unspecified),80 to 82
26,Cc1cc(C(=O)CCl)c(C)n1CCC(C)C,55 to 57

row,Structure (SMILES),melting point [°C]
1,Cc1sc2ccc(Cl)cc2c1S(=O)(=O)Cl,148 to 150
2,Clc1ccc2c(c1)NCCS2,110 to 112
3,Cc1ccc(-c2csc3ncnc(Cl)c23)cc1C,179 to 181
4,N#Cc1ccc(OCC2CO2)cc1 (stereo unspecified),64 to 66
5,NNC(=O)Nc1ccc(Br)cc1Cl,163 to 165
6,COCCCC(=O)c1ccc(Br)cc1,53 to 55
7,BrCC1CSc2nnc(-c3ccccc3)n21 (stereo unspecified),157 to 159
8,Nc1ccccc1S(=O)(=O)C(F)F,65 to 67
9,Nc1nc(CCl)nc2sc3c(c12)CCCCC3,174 to 176
10,Cc1ccc(C(=O)O)cc1NS(=O)(=O)c1ccc(F)cc1,234 to 236
11,Cc1[nH]c2ccc(F)cc2c1CC(=O)O,180 to 182
12,O=S1CCCNc2ccccc21 (stereo unspecified),122 to 124
13,COc1cc(OC)c(N(C)S(=O)(=O)c2cccc(C(=O)O)c2)cc1Cl,208 to 210
14,COC(=O)c1ccc(N)cc1Cl,107 to 109
15,COc1ccccc1NS(=O)(=O)c1ccc(N2CCOCC2)c(N)c1,150 to 152
16,O=C(O)c1cc(S(=O)(=O)Cl)cc(F)c1F,111 to 113
17,CN(C)S(=O)(=O)c1ccc(O)cc1,95 to 97
18,NC(CSCCc1ccccc1)C(=O)O (stereo unspecified),210 to 212
19,CCSCc1ccc(C(=O)O)cc1,123 to 125
20,O=C(O)c1cc[nH]c1,129 to 131
21,COC(=O)C(Cc1c[nH]c2ccccc12)NC(=O)CCl (stereo unspecified),130 to 132
22,CC(Oc1ccc(Br)cc1)C(=O)O (stereo unspecified),118 to 120
23,CN1C(=O)C=C(Br)C1=O,84 to 86
24,CC(C)CC(=O)Cc1ccc(Cl)cc1Cl,28 to 30

# Second part, the molecule after the results:
row,melting point [°C],Structure (SMILES)
1,190 to 192,COc1ccnc(NCC(=O)O)n1
2,157 to 159,CNc1ccnc(C(N)=O)c1
3,84 to 86,Cc1ccccc1C(=O)CC#N
4,216 to 218,Cc1cn2nc(N)c3ccccc3c2n1
5,85 to 87,OCc1ccc(O)c(Cl)c1
6,331 to 333,Nc1cccc(-c2c3c(=O)[nH][nH]c(=O)c3c3n2CCC3)c1
7,49 to 51,Cc1cc2cc(Cl)cc(Cl)c2[nH]1
8,245 to 247,O=C(Nc1ccc(Cl)cn1)Nc1ccccc1C(=O)O
9,51 to 53,O=Cc1ccc(-c2c(F)cccc2F)o1
10,191 to 193,O=C(O)CNC(c1ccccc1)C(F)(F)F (stereo unspecified)
11,99 to 101,Nc1ccc2nc(C3CC3)oc2c1
12,325 to 327,O=C1CN(c2ccc(O)cc2)C(=O)N1
13,73 to 75,COC(=O)c1cc(Br)cc(N)c1Cl
14,36 to 38,CCCOC(=O)c1ccc(S(=O)(=O)Cl)cc1
15,93 to 95,Cc1ccc(C(C)C)c(OCCC(=O)O)c1
16,93 to 95,CCOC(=O)c1ccc(Br)c(S(=O)(=O)Cl)c1
17,138 to 140,O=C(O)C1Cc2ccccc2CN1S(=O)(=O)c1ccccc1 (stereo unspecified)
18,151 to 153,CCc1ncc(C(=O)O)s1
19,53 to 55,CCCc1nc(N)sc1CC
20,62 to 64,N#CCC(=O)c1ccc(Cl)cc1Cl
21,208 to 210,Cc1cc(-c2ccccc2)nc(S)n1
22,115 to 117,Nc1cncnc1-c1ccccc1
23,74 to 76,c1ccc(-c2ccc3[nH]ccc3c2)cc1
24,235 to 237,O=C(O)c1ccc(-n2cccn2)c(F)c1

row,melting point [°C],Structure (SMILES)
1,93 to 95,CC(=O)c1cccc(OC(C)C(=O)O)c1 (stereo unspecified)
2,144 to 146,Cc1ccc(NC(=O)NC(=O)CCl)cc1C
3,107 to 109,NNC(=O)Nc1cccc(Cl)c1
4,250 to 252,NC(=O)N1CCN2C(=O)NC(=O)C2C1 (stereo unspecified)
5,244 to 246,Cn1nc(C(=O)O)c(=O)c2ccccc21
6,167 to 169,Fc1ccccc1-n1cnnc1S
7,116 to 119,O=S(=O)(O)c1nc2ccccc2[nH]1
8,82 to 84,Nc1ccc(-n2nccn2)nc1
9,54 to 56,Clc1ncncc1I
10,224 to 226,O=C(O)CC1NC(=O)N(c2ccc(F)cc2)C1=O (stereo unspecified)
11,199 to 201,O=[N+]([O-])c1ccc(O)c(-n2cnnn2)c1
12,209 to 211,O=C(O)c1c[nH]c2cccc(F)c12
13,42 to 44,O=CC1=C(Sc2ccccc2)CCCC1
14,76 to 78,O=C(O)CCOc1ccc(F)cc1F
15,210 to 212,Nc1ccc(C(=O)N2CCCc3ccccc32)cc1
16,114 to 116,COc1ccc(OCc2cc(C)on2)c(C(=O)O)c1
17,206 to 208,Cc1c(C(=O)O)[nH]c2c1C(=O)CC(C)(C)C2
18,125 to 127,COc1cccc(C2(C(=O)O)CCCC2)c1
19,87 to 89,CCOC(=O)c1sc2nc(C)nn2c1C
20,63 to 65,OC(CCl)CNCc1ccccc1 (stereo unspecified)
21,39 to 41,Cc1cc(Cl)cc(C)c1C=O
22,169 to 171,CC1CNc2cc(F)ccc2C(=O)N1 (stereo unspecified)
23,254 to 256,O=C(O)c1ccc(NS(=O)(=O)c2ccc(Br)s2)cc1
24,115 to 117,O=C(O)CCOc1ccccc1Cl

row,melting point [°C],Structure (SMILES)
1,154 to 156,COc1cc(Br)ccc1C(=O)O
2,213 to 215,O=Cc1c(Cl)nc2ccccn2c1=O
3,114 to 116,CCCn1c(N)nc2ccccc21
4,221 to 223,O=c1[nH]c(CO)nc2ccccc12
5,90 to 92,Cc1cc(C)n(CCS(C)(=O)=O)n1
6,229 to 231,CC(C)(C)OC(=O)N1CCc2[nH]c(=O)c(S(C)(=O)=O)cc2C1
7,150 to 152,N#Cc1ccsc1NC(=O)CCCl
8,197 to 199,COc1cc(C(=O)O)cc(Br)c1O
9,159 to 161,Cn1c(C(=O)O)ccc1-c1ccc(F)cc1
10,147 to 149,NC(=S)C1CN(C(=O)OCc2ccccc2)CCO1 (stereo unspecified)
11,94 to 96,O=Cc1cc(Cl)c2ccccc2c1O
12,29 to 31,O=C(O)C1CC1C1CC1 (stereo unspecified)
13,116 to 118,N#Cc1cccc(-n2cccn2)n1
14,139 to 141,CNC(=O)NC(C)(C)C(=O)O
15,224 to 226,CC(C)c1noc2nc(-c3ccco3)cc(C(=O)O)c12
16,202 to 204,O=C(O)c1cn(-c2ccccc2)nc1-c1ccccc1
17,54 to 56,COc1cc(CCC(=O)O)cc(OC)c1
18,140 to 142,Cc1nc2c3ccccc3nc(Cl)n2n1
19,171 to 173,COc1ccc(NS(=O)(=O)c2ccc(N)cc2)cc1OC
20,146 to 148,O=C(O)C1(c2cccs2)CCCCC1
21,199 to 201,Nc1cc(S(N)(=O)=O)ccc1O
22,116 to 118,Cn1cc(CC2CC(=O)NC2=O)cn1 (stereo unspecified)

# Reference: a melting point compilation (Tetko et al.)
